In the RepoRT retention time repository (doi:10.1016/j.foodchem.2021.129757):
Counter-ions that a name gives are not always drawn.

Legend:
Conditions in all cases: stereoisomer not certain
[1] = RP, Waters ACQUITY UPLC HSS T3, 100 × 2.1 mm, 50 °C; A: water + 0.1% formic acid, pH 3; B: 30% methanol + 70% acetonitrile + 0.1% formic acid, pH 3; gradient (min/%B) 0/5 1/8 2/15 3/40 4/70 4.5/100 5/100 6.4/100 6.6/5 6.8/5 7/5
[2] = RP, Waters ACQUITY UPLC BEH C18, 100 × 2.1 mm, 1.7 µm, 65 °C, 0.4 mL/min, estimated dead time 0.55 min; A: water + 0.1% formic acid, pH 3; B: 80% acetonitrile + 20% acetone + 0.1% formic acid, pH 3; gradient (min/%B) 0/0 5/100 5.5/0 6/0
[3] = RP, Waters ACQUITY UPLC HSS T3, 100 × 2.1 mm, 1.8 µm, 30 °C, 0.4 mL/min, estimated dead time 0.55 min; A: water + 0.1% formic acid, pH 3; B: acetonitrile + 0.1% formic acid, pH 3; gradient (min/%B) 0/0 2/0 15/100 22/100 22.1/0 26/0
[4] = RP, Agilent ZORBAX RRHD Eclipse Plus C18, 50 × 2.1 mm, 1.8 µm, 30 °C, 0.4 mL/min, estimated dead time 0.28 min; A: water + 0.1% formic acid, pH 3; B: acetonitrile + 0.1% formic acid, pH 3; gradient (min/%B) 0/1 5/10 8/25 9.1/99 10/99 12/99
[5] = RP, Waters ACQUITY UPLC BEH Shield RP18, 150 × 2.1 mm, 1.7 µm, 40 °C, 0.4 mL/min, estimated dead time 0.83 min; A: water + 0.1% formic acid, pH 3; B: acetonitrile + 0.1% formic acid, pH 3; gradient (min/%B) 0/0 30/50 31/100 37/100 37.1/0
[6] = RP, Agilent ZORBAX RRHD Eclipse Plus C18, 50 × 2.1 mm, 1.8 µm, 30 °C, 0.4 mL/min, estimated dead time 0.28 min; A: water + 0.1% formic acid, pH 3; B: acetonitrile + 0.1% formic acid, pH 3; gradient (min/%B) 0/1 5/10 8/25 9.1/99 10/99 12/1
[7] = RP, Agilent ZORBAX Eclipse XDB-C18, 100 × 2.1 mm, 1.8 µm, 50 °C, 0.4 mL/min, estimated dead time 0.55 min; A: water + 0.1% formic acid, pH 3; B: methanol + 0.1% formic acid, pH 3; gradient (min/%B) 0/2 10/100 14.5/100 14.51/2 16.5/2

SMILES	LC retention time [1] [min]	LC retention time [2] [min]	also measured
COc1ccc(-c2cc(=O)c3c(O)cc(OC4OC(C(=O)O)C(O)C(O)C4O)cc3o2)cc1O (stereo not drawn) [Diosmetin 7-glucuronide]	3.6		
O=C(Cc1c[nH]c2ccccc12)OC1OC(C(=O)O)C(O)C(O)C1O (stereo not drawn) [Indole-3-acetic acid glucuronide]	3.46		
NC(=O)NCCC[C@H](N)C(=O)O [L-Citrulline]	0.483		
O=C(O)CNC(=O)C=Cc1c[nH]c2ccccc12 [Indole-3-acryloylglycine]	3.56	2.13	
O=C(OC1OC(C(=O)O)C(O)C(O)C1O)c1c[nH]c2ccccc12 (stereo not drawn) [3-Indole carboxylic acid glucuronide]	3.36	1.89	
CS(=O)CCCN=C=S (stereo not drawn) [Iberin]	3.25		
Cn1c(=O)[nH]c(=O)c2[nH]cnc21 [3-Methylxanthine]	1.45	1.3	
NCCc1ccc(O)c(O)c1 [Dopamine]	0.706		LC retention time [3]: 1.3 min
CC(C)C1NC(=O)C2CCCN2C1=O (stereo not drawn) [Cyclo(Pro-Val)]	3.1	1.88	LC retention time [3]: 8.07 min
Cc1ccc(OS(=O)(=O)O)cc1 [p-Cresol sulfate]	3.38	1.99	
COc1cc(CCC(=O)O)ccc1O [Dihydroferulic acid]			LC retention time [4]: 4.07 min; LC retention time [5]: 8.81 min; LC retention time [6]: 7.16 min
CC(=O)CCC(=O)O [Levulinic acid]	1.46	1.4	
Cn1c(=O)[nH]c(=O)c2c1[nH]c(=O)n2C [3,7-Dimethyluric acid]	1.54		
Cn1cnc2[nH]c(=O)[nH]c(=O)c21 [7-Methylxanthine]	1.25		
Cc1ccccc1C(=O)NCC(=O)O [2-Methylhippuric acid]	3.4	1.96	
O=C(O)CCCCCCCC(=O)O [Azelaic acid]	3.63	2.33	LC retention time [7]: 5.74 min
O=C(O)C(O)Cc1c[nH]c2ccccc12 (stereo not drawn) [3-Indolelactic acid]	3.53	2.14	
Oc1ccccc1O [Catechol]		1.75	LC retention time [4]: 3.97 min; LC retention time [5]: 4.35 min; LC retention time [6]: 3.15 min
O=S(=O)(O)Oc1c[nH]c2ccccc12 [3-Indoxyl sulfate]	2.67	1.68	
O=C(O)C1CCCCN1 (single isomer, unassigned; (+)) [(+)-Pipecolinic acid]	0.617		
O=C(O)Cc1ccccc1O [2-Hydroxyphenylacetic acid]	3.4		LC retention time [3]: 9.13 min; LC retention time [7]: 3.82 min
O=C(O)C1OC(Oc2c[nH]c3ccccc23)C(O)C(O)C1O (stereo not drawn) [Indoxyl beta-d-glucuronide]	2.94	1.73	
O=C(O)CCc1ccc(O)cc1O [3-(2,4-dihydroxyphenyl)propionic acid]	3.02		
O=C(O)c1cc(=O)c2cccc(O)c2[nH]1 [Xanthurenic acid]	2.57		
O=C(O)CCc1cc(O)cc(O)c1 [3-(3,5-Dihydroxyphenyl)propanoic acid]	2.66		
O=C(O)c1ccc[nH]1 [Pyrrole-2-carboxylic acid]	2.61	1.68	
Cc1ncc(CO)c(C=O)c1O [Pyridoxal]	2.61	0.821	LC retention time [7]: 1.35 min
O=Cc1ccccc1O [2-Hydroxybenzaldehyde]	3.72		

SMILES	LC retention time [1] [min]	LC retention time [2] [min]	also measured
Cn1c(=O)c2[nH]c(=O)[nH]c2n(C)c1=O [1,3-Dimethyluric acid]	2.01	1.45	LC retention time [3]: 7.03 min
OCC1OC(Oc2c[nH]c3ccccc23)C(O)C(O)C1O (stereo not drawn) [Indoxyl beta-d-glucoside]	2.92		
CC(O)C1NC(=O)C2CCCN2C1=O (stereo not drawn) [Cyclo(Pro-Thr)]	1.54	1.37	
CN(C)CC(=O)O [N,N-Dimethylglycine]	0.49		
O=C1c2c(O)cc(O)cc2OC(c2ccc(O)cc2)C1O (stereo not drawn) [Dihydrokaempferol]			LC retention time [5]: 15.3 min
O=C(O)Cc1c[nH]c2ccc(O)cc12 [5-Hydroxyindole-3-acetic acid]	2.86	1.61	
O=C(O)C(O)Cc1ccc(O)cc1 (stereo not drawn) [p-Hydroxyphenyllactic acid]	2.66		LC retention time [7]: 2.73 min
c1coc(CNc2ncnc3nc[nH]c23)c1 [Kinetin]	3.03	1.7	
CC1=C2C(=O)C=C(CO)C2C2OC(=O)C(C)C2CC1 (stereo not drawn) [Dihydro-8-deoxylactucin]			LC retention time [5]: 14.5 min
O=C(O)C1OC(Oc2ccccc2O)C(O)C(O)C1O (stereo not drawn) [Catechol-O-1-glucuronide]	2.65		LC retention time [4]: 3.09 min; LC retention time [6]: 4.38 min
Cc1cccc(OS(=O)(=O)O)c1 [m-Cresol sulfate]	3.44	2	
Cc1ccc(OC2OC(C(=O)O)C(O)C(O)C2O)cc1 (stereo not drawn) [p-Cresol glucuronide]	3.44	2.01	
O=C1OC(C(O)CO)C(O)=C1O (stereo not drawn) [Ascorbic acid]	0.601		
O=C(O)Cc1c[nH]c2ccccc12 [3-Indoleacetic acid]	3.62	2.35	LC retention time [7]: 5 min
CC(=O)Nc1c(N)[nH]c(=O)n(C)c1=O [AAMU]	0.681		
C=C1C(=O)OC2C1CCC(C)=C1C(=O)C=C(COC(=O)C(=O)O)C12 (stereo not drawn) [8-deoxylactucin-15-oxalate]			LC retention time [5]: 14.5 min
Cn1c(=O)[nH]c2ncn(C)c2c1=O [Paraxanthine]	2.56	1.48	LC retention time [3]: 7.53 min; LC retention time [7]: 2.93 min
O=C(O)C1CC(O)CN1 (stereo not drawn) [Hydroxyproline]	0.466		
NCCc1ccc(OS(=O)(=O)O)c(O)c1 [Dopamine 4-O-sulfate]	0.606	1.3	
Cn1c(=O)[nH]c2[nH]c(=O)[nH]c2c1=O [1-Methyluric acid]	1.27	1.29	
CC(C)(CO)C(O)C(=O)NCCC(=O)O (racemic) [DL-Pantothenic acid]	2		LC retention time [7]: 2.42 min
C=C1C(=O)OC2C3C(CO)=CC(=O)C3=C(C)CC(O)C12 (stereo not drawn) [Lactucin]			LC retention time [5]: 11.2 min
CC1=C2C(=O)C=C(CO)C2C2OC(=O)C(C)C2C(O)C1 (stereo not drawn) [Dihydrolactucin]			LC retention time [5]: 10.5 min
C=CCS(=O)CC(N)C(=O)O (stereo not drawn) [Alliin]	0.638		
O=C(O)C1OC(Oc2ccc(O)cc2)C(O)C(O)C1O (stereo not drawn) [Hydroquinone glucuronide]	0.909		
Cc1ccccc1OS(=O)(=O)O [o-Cresol sulfate]	3.38	1.93	
CC1=C2C(=O)C=C(COC(=O)C(=O)O)C2C2OC(=O)C(C)C2C(O)C1 (stereo not drawn) [Dihydrolactucin-15-oxalate]			LC retention time [5]: 9.7 min
